“Also recorded” adds a separate entry of the source.

Assay [1] concerns the target T1, CD1a (Homo sapiens, UniProt P06126). Briefly: MC903-induced atopic dermatitis model in CD1a-transgenic mice. Also on record: expressed in transfected cells; host or cells: CD1a-transgenic mice (compared with wild-type B6 mice). The settings on record: MC903 daily on ears, CD1a-transgenic mice compared to WT B6 controls. The class given is in vivo. The source says:
Atopic dermatitis is an inflammatory skin disease characterized by itchy and relapsing eczematous skin lesions. It affects approximately 30% of children and 10% of adults, costing up to $3.8 billion annually in the United States. The cause of atopic dermatitis remains unclear, and there is no cure available. Recently, it has been reported that IL-22-producing CD4 T cells are associated with initiation and progression of atopic dermatitis. Therefore, it is worthwhile to test whether anti-CD1a therapy can be extended to atopic dermatitis. For this purpose, we set up a mouse model of atopic dermatitis applying MC903 (calcipotriol, Vitamin D analogue) daily on the ears of experimental mice, which triggers atopic dermatitis-like skin inflammation characterized by red, scaly, and eczematous lesions. […] Furthermore, anti-CD1a Ab injection suppressed ear swelling and granulocyte infiltration in CD1a-transgenic mice.
The inventors tested the contribution of CD1a presence in MC903-induced atopic dermatitis. The vitamin D3 analogue MC903 was used to induce AD-like symptoms in wild-type (WT-B6) mice, CD1a transgenic mice, and CD1a transgenic mice that were treated with an anti-CD1a Ab. For CD1a blocking, 200 μg of anti-CD1a Ab was intraperitoneally injected into CD1a-transgenic mice every other day (−1, +1, +3, +5, and +7 days before and after MC903 treatment).
Target sequence in this assay (P06126 17-327): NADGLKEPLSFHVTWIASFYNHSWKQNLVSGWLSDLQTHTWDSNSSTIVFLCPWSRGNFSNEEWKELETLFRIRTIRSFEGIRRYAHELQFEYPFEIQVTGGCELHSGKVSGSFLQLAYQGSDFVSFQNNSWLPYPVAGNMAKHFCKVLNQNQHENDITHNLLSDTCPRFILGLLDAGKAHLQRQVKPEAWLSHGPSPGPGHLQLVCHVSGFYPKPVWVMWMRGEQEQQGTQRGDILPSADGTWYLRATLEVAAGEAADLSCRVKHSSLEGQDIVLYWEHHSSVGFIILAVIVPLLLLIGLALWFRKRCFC
Target sequence in this assay (P01887 21-119 partner): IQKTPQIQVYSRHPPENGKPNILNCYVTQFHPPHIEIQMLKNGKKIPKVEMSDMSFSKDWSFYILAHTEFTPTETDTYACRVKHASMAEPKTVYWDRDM

Assay [2] deals with CD1a-transgenic mice. Briefly: DNFB hapten sensitization and challenge in CD1a-transgenic mice. The class given is in vivo. The source says:
Finally, we wanted to examine whether CD1a-transgenic mice are generally prone to increased inflammatory responses. To this end, we treated mice with the well-established hapten DNFB (dinitrofluorobenzene). FIG. 7A depicts the skin sensitization and challenge schedule used for DNFB and urushiol application. […] It is well known that haptens like DNFB induce a prominent IFN-γ response, as we observed in WT mice (FIG. 7D). […] By contrast, the classical delayed type hypersensitivity (DTH) response to DNFB was rather decreased in the presence of CD1a. This underlines the specific nature of CD1a function in urushiol-induced contact dermatitis and psoriasis.

In assay [3] the target is T1, CD1a. Briefly: OCTET Bio-Layer Interferometry CD1a-lipid ligand binding assay. The settings on record: recombinant CD1a coupled to a biosensor, incubated with lipid ligand. An excerpt:
In order to develop a small molecule inhibitor against CD1a, a CD1a binding assay as a platform can be used to test potential inhibitors from a chemical compound library. For this purpose, we have already established a read-out using the OCTET machine (from FORTEBIO) to measure the molecular interaction between CD1a and lipid ligands with high sensitivity. […] However, the great advantage of the OCTET is its straightforward assay set-up, and that it is amenable to high throughput screening using a 384-well plate format. Accordingly, we use recombinant CD1a molecules coupled to a biosensor, prior to incubation with the known lipid ligand sulfatide. […] In a next step, use pools of small organic molecules derived from a chemical compound library are tested by adding them to the CD1a-sulfatide binding assay. Subsequently, one can measure whether a small molecule candidate is able to inhibit the interaction between CD1a and its ligand.
Target sequence in this assay (P06126 17-300 limits assumed): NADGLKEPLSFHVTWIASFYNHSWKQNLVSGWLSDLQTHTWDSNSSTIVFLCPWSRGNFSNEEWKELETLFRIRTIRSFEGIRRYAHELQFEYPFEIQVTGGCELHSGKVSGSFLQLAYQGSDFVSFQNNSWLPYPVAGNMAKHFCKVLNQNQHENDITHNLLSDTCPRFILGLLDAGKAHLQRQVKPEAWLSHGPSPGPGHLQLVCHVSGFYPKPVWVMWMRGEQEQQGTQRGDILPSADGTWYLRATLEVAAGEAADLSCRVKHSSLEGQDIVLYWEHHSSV
Target sequence in this assay (P61769 21-119 partner): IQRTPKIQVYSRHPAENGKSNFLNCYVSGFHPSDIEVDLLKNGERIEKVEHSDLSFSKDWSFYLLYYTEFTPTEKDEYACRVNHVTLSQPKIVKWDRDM

For assay [4], the target named is T1, CD1a. Briefly: imiquimod (IMQ) psoriasis model in CD1a-transgenic mice. The class given is in vivo, mouse. Details: expressed in transfected cells; host or cells: CD1a-transgenic mice (compared with wild-type B6 mice). An excerpt: Therefore, we subsequently investigated whether CD1a also plays an important role in psoriasis. For this purpose, we used a well-established model applying the small molecule imiquimod (IMQ) to the skin of mice, which induces psoriasis-like pathology after 3-6 days of daily administration. Strikingly, CD1a-transgenic mice responded with extensive ear swelling when compared to WT controls (FIG. 5A).
In order to test whether anti-CD1a therapy is able to abrogate skin inflammation in psoriasis, we performed IMQ treatment of mice and administered anti-CD1a antibody in parallel as described above. […] Of note, anti-CD1a therapy blocked the infiltration of IL-17 producing CD4 T cells.
Target sequence in this assay (P06126 17-327): as the sequence (P06126 17-327) above
Target sequence in this assay (P01887 21-119 partner): as the sequence (P01887 21-119 partner) above

Assay [5] concerns the target T1, CD1a. Briefly: urushiol-induced contact dermatitis (poison ivy) in CD1a-transgenic mice. Also on record: expressed in transfected cells; host or cells: CD1a-transgenic mice (compared with wild-type B6 mice). The class given is in vivo, mouse. The source says: Next, we wanted to explore the function of CD1a in the in vivo response to urushiol. However, CD1a is mainly expressed in humans, and absent in experimental mice. Therefore, in vivo studies investigating CD1a function were not possible in the past. Therefore, we used mice transgenic for human CD1a to overcome that obstacle. FIG. 2A depicts the experimental set-up to investigate the skin immune response to poison ivy. Accordingly, CD1a-transgenic mice compared to wild-type (WT) mice were sensitized with urushiol on the abdomen following the epicutaneous route. Five days later, mice were challenged on the ear skin, prior to harvesting of inflamed ears and draining lymph nodes 48 h after challenge. […] Subsequently, we isolated the inflammatory cells from the ears, using in vitro enzyme digestion of ear tissues, prior to staining for neutrophils and T lymphocyte subsets.
In parallel, we also determined the cytokine profile of the T cells infiltrating the inflamed skin. Accordingly, we performed intracellular cytokine staining for IFN-γ, IL-17, and IL-22, prior to analysis by flow cytometry. […] IL-17 is known to mediate the recruitment of neutrophils, and IL-22 acts on epithelial cells to trigger their hyperproliferation, both cardinal features of skin inflammation.
Based on our findings that CD1a promotes skin inflammation, we next aimed at developing a therapeutic strategy to target CD1a in order to abrogate skin disease. To this end, we used an experimental blocking antibody to CD1a for intraperitoneal injection of mice. The treatment schedule included five injections of 100 μg anti-CD1a starting one day prior to sensitization with urushiol and followed by injections every other day until challenge and tissue harvest. […] To control for the efficiency of antibody treatment, we stained ear cells for CD1a, the crucial surface marker of Langerhans cells. […] Moreover, we investigated the impact of anti-CD1a treatment on the abundance of IL-17-producing CD4 T cells (also called Th17 cells). […] Taken together, we provide the proof of principle that anti-CD1a therapy abrogates skin inflammation.
Target sequence in this assay (P06126 17-327): as the sequence (P06126 17-327) above
Target sequence in this assay (P01887 21-119 partner): as the sequence (P01887 21-119 partner) above

For assay [6], the target named is T1, CD1a. Description: plate-bound binding assay, purified urushiol and recombinant CD1a. To be noted: plate coated with lipid, biotinylated CD1a, streptavidin-peroxidase; compared to positive control sulfatide. The source says:
Central to our invention is the discovery that CD1a expressed on Langerhans cells is able to mediate skin inflammation through the induction of CD1a-restricted T cells. Accordingly, T cells stimulated by CD1a produce inflammatory cytokines such as interferon (IFN) gamma and IL-17 that facilitate the development of inflammatory skin disease (FIG. 1A). The CD1a-mediated mechanism holds true for diverse skin diseases, including poison ivy contact dermatitis as well as psoriasis. […] For this purpose, we performed a plate-bound binding assay, using purified urushiol and recombinant CD1a. After coating the microtiter plates with urushiol or the known CD1a ligand sulfatide as positive control, plates were washed and subsequently incubated with biotinylated CD1a. Following incubation with streptavidin-peroxidase and the respective chromogenic enzyme substrate, optical density was measured indicating binding efficiency. […] Thus, urushiol from poison ivy is a ligand for CD1a.
Target sequence in this assay (P06126 17-300 limits assumed): as the sequence (P06126 17-300 limits assumed) above
Target sequence in this assay (P61769 21-119 partner): as the sequence (P61769 21-119 partner) above

Setting [7] is: intracellular cytokine staining, flow cytometry.

In the case of `C=C1/C(=C\C=C2/CCC[C@]3(C)[C@@H]([C@H](C)/C=C/[C@@H](O)C4CC4)CC[C@@H]23)C[C@@H](O)C[C@@H]1O` [MC903, calcipotriol], in assay [1], the “Gr1+CD11b+ granulocyte infiltration” value was “significantly amplified” and the ear swelling result is given as “significantly amplified”.

Take `O=[N+]([O-])c1ccc(F)c([N+](=O)[O-])c1` [DNFB, 2,4,-dinitro-1-fluorobenzene]: in assay [2] (CD1a-transgenic animals, response biased towards IL-17), the “T cell-derived IFN-γ” value is on record as “significantly reduced”. The “abundance of inflammatory granulocytes, flow cytometry” value in assay [2] (CD1a-transgenic mice) is given as “strikingly reduced”. Also, the “ear swelling (inflammation)” value in assay [2] (CD1a-transgenic mice, in contrast to poison ivy challenge) is listed as “reduction”. Moreover, in assay [2] (WT mice), the IFN-γ response result is given as “prominent”.

As for sulfatide, in assay [3], the “binding curves, molecular interaction with CD1a” value is “sensitive and specific binding curves”.

As to `CC(C)Cn1cnc2c(N)nc3ccccc3c21` [imiquimod], the ear swelling entry in assay [4] (IMQ on skin, CD1a-transgenic mice compared to WT controls) was “extensive”. In addition, in assay [4] (IMQ, CD1a-transgenic mice), the “Gr-1+CD11b+ neutrophils and αβ T cells in the skin, flow cytometry” value is “dramatic increase”; the “cytokine profile of inflammatory T cells” value was “mainly consisted of CD4 T cells producing IL-17 and IL-22”.

Take urushiol: in assay [5] (2 days after urushiol challenge, CD1a-transgenic mice compared to WT controls), the “ear swelling (ear thickness)” value was “drastically increased”. Further, the “CD4+αβ T cells in urushiol-challenged skin” value in assay [5] (CD1a-dependent fashion) is “expanded”. For the same compound, the “frequency of Th17 cells” value in assay [5] (CD1a-transgenic mice challenged with urushiol) is given as “drastically increased”. In addition, in assay [5] (setting [7]), the “IFN-γ response of T cells infiltrating the inflamed skin” value is “failed to induce”; the “cytokine profile of T cells responding to challenge” value was “mainly produced the cytokines IL-17 and IL-22”. Also, the “neutrophil infiltration (Gr-1, CD11b), flow cytometry” value in assay [5] (urushiol-challenged ears, CD1a-transgenic mice vs WT) was “striking increase”. Further, the “binding to CD1a (optical density)” value in assay [6] is “specific binding; also recorded: interacts as a ligand”.

The values are drawn from patent publication US10844118B2, “Treatment of inflammatory skin disease” (CHILDREN'S MEDICAL CENTER CORPORATION, priority 2013, dated 2020).
